Assay results published in patent US20240115536A1, “DUAL-ACTING PHARMACEUTICAL COMPOSITIONS BASED ON SUPERSTRUCTURES OF ANGIOTENSIN RECEPTOR ANTAGONIST/BLOCKER (ARB) AND NEUTRAL ENDOPEPTIDASE (NEP) INHIBITOR” (Novartis AG, priority 2007, published 2024).
Read-outs that look alike come from different tables or passages of the source.

Columns and labels:
[1] = Dissolution testing, USP paddle method, pH 6.8 phosphate buffer, 50 rpm; assay type: physicochemical
Description: The term “dissolution” as used herein refers to a process by which a solid substance, here the active ingredients, is dispersed in molecular form in a medium. The dissolution rate of the active ingredients of the pharmaceutical oral fixed dose combination of the invention is defined by the amount of drug substance that goes in solution per unit time under standardized conditions of liquid/solid interface, temperature and solvent composition. The dissolution rate is measured by standard methods known to the person skilled in the art, see the harmonized procedure set forth in the pharmacopeias USP <711> and EP 2.9.3 and JP. For the purposes of this invention, the test is for measuring the dissolution of the individual active ingredients is performed following pharmacopeia USP <711> at pH 6.8 using a paddle stirring element at 50 rpm (rotations per minute) or alternatively at pH 4.5 using a paddle stirring element at 75 rpm as specified. The dissolution medium is preferably a buffer, typically a phosphate buffer, especially one as described in the example “Dissolution Test”.
The tablets of the Examples are tested for their dissolution in 900 ml of pH 6.8 phosphate buffer with paddles at 50 rpm.
The assembly consists of the following: a covered vessel made of glass or other inert, transparent material; a motor, and a paddle formed from a blade and shaft as the stirring element. The vessel is partially immersed in a suitable water bath of any convenient size or placed in a heating jacket. The water bath or heating jacket permits holding the temperature inside the vessels at 37±0.5° during the test and keeping the bath fluid in constant, smooth motion. No part of the assembly, including the environment in which the assembly is placed, contributes significant motion, agitation, or vibration beyond that due to the smoothly rotating stirring element. Apparatus that permits observation of the specimen and stirring element during the test is has the following dimensions and capacities: the height is 160 mm to 210 mm and its inside diameter is 98 mm to 106 mm. Its sides are flanged at the top. A fitted cover may be used to retard evaporation. The shaft is positioned so that its axis is not more than 2 mm at any point from the vertical axis of the vessel and rotates smoothly without significant wobble. The vertical center line of the blade passes through the axis of the shaft so that the bottom of the blade is flush with the bottom of the shaft. The design of the paddle is as shown in USP <711>, FIG. 2. The distance of 25±2 mm between the blade and the inside bottom of the vessel is maintained during the test. The metallic or suitably inert, rigid blade and shaft comprise a single entity. A suitable two-part detachable design may be used provided the assembly remains firmly engaged during the test. The paddle blade and shaft may be coated with a suitable inert coating. The dosage unit is allowed to sink to the bottom of the vessel before rotation of the blade is started. A small, loose piece of nonreactive material such as not more than a few turns of wire helix may be attached to dosage units that would otherwise float. Other validated sinker devices may be used.
1L of a buffered aqueous solution, adjusted to pH 6.8±0.05 (0.05 M Phosphate buffer solution obtained by dissolving 6.805 g of potassium dihydrogen phosphate and 0.896 g of sodium hydroxide in and diluting to 1000 ml with water, and adjusting the pH to 6.80±0.05 using 0.2 M sodium hydroxide or 1 M phosphoric acid; referred hereinafter as “Dissolution Medium”) is placed in the vessel of the apparatus, the apparatus is assembled, the Dissolution Medium is equilibrated to 37±0.5°, and the thermometer is removed. 1 dosage form (e.g. tablet or capsule) is placed on the apparatus, taking care to exclude air bubbles from the surface of the dosage-form unit, and immediately the apparatus is operated at a rate of 50+2 rpm. […]

[2] = for AUC0-24 for valsartan / Cmax for valsartan / t1/2 for valsartan / tmax for valsartan: healthy volunteers
[3] = Measurement of pharmacokinetic parameters, ascending single dose 5, 20, 80 mg LCZ696 vs 40 mg Diovan
Description: The study employs a two-period, parallel group, ascending single dose (5, 20, 80 mg of LCZ696 and 40 mg Diovan® (marketed formulation of valsartan), placebo controlled design with dose selection based on FDA exploratory-IND guidance. The dosages of LCZ696 are obtained by using the 5 mg and 50 mg tablets as manufactured above and employing for the 20 mg and 80 mg dose multiple tablets of 5 mg and/or 50 mg strength.
To enable comparison of the exposure to valsartan between LCZ696 and Diovan® at different dose levels, valsartan's exposure (AUC) and Cmax values are normalized to the actual amount of anhydrous salt-free- valsartan administered (normalized by mg-equivalent). The AUC0-24 values are calculated as ng·h/ml/mg-equivalent of valsartan, and the geometric means are compared.

[4] = Cohort A (5 mg LCZ696; 40 mg Diovan)
[5] = Cohort B (20 mg LCZ696; 40 mg Diovan)
[6] = Cohort C (80 mg LCZ696; 40 mg Diovan)
[7] = Combined Cohorts A-B-C (pooled data)
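Throughout, for AUC0-24 for valsartan: randomized double-blind placebo-controlled parallel-group study with ascending single doses and 14-day daily dosing cohorts, pharmacokinetics measured in healthy volunteers.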
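Throughout, for Cmax for valsartan: randomized double-blind placebo-controlled parallel-group study with ascending single doses and 14-day daily dosing cohorts, pharmacokinetics measured in healthy volunteers.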
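Throughout, for accumulation of all analytes: randomized double-blind placebo-controlled parallel-group study with ascending single doses and 14-day daily dosing cohorts, pharmacokinetics measured in healthy volunteers.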
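Throughout, for t1/2 for valsartan: randomized double-blind placebo-controlled parallel-group study with ascending single doses and 14-day daily dosing cohorts, pharmacokinetics measured in healthy volunteers.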

With CCCCC(=O)N(Cc1ccc(-c2ccccc2-c2nn[n-]n2)cc1)[C@H](C(=O)[O-])C(C)C.CCOC(=O)[C@H](C)C[C@@H](Cc1ccc(-c2ccccc2)cc1)NC(=O)CCC(=O)[O-].[Na+].[Na+].[Na+] [LCZ696, trisodium [3-((1S,3R)-1-biphenyl-4-ylmethyl-3-ethoxycarbonyl-1-butylcarbamoyl) propionate-(S)-3′-methyl-2′-(pentanoyl{2″-(tetrazol-5-ylate)biphenyl-4′-ylmethyl}amino)butyrate]hemipentahydrate] the “mean valsartan free acid released” value ([1]; about 100 mg per unit dosage form, after 10 min) was “about 50%”, the “mean valsartan free acid released” value ([1]; about 100 mg per unit dosage form, after 20 min) was “about 85%” and the “mean valsartan free acid released” value ([1]; about 100 mg per unit dosage form, after 30 min) was “about 95%”. The “mean valsartan free acid released” value ([1]; about 200 mg per unit dosage form, after 10 min) was “about 50%”, the “mean valsartan free acid released” value ([1]; about 200 mg per unit dosage form, after 20 min) was “about 85%” and the “mean valsartan free acid released” value ([1]; about 200 mg per unit dosage form, after 30 min) was “about 95%”. For the same compound, the “mean valsartan free acid released” value ([1]; about 400 mg per unit dosage form, after 10 min) was “about 40%”, the “mean valsartan free acid released” value ([1]; about 400 mg per unit dosage form, after 20 min) was “about 70%” and the “mean valsartan free acid released” value ([1]; about 400 mg per unit dosage form, after 30 min) was “about 90%”. The AUC0-24 for valsartan ([2]; 50 mg daily for 14 days) was 6935 ng·h/mL, the Cmax for valsartan ([2]; 50 mg daily for 14 days) was 1233 ng/mL and the t1/2 for valsartan ([2]; 50 mg daily for 14 days) was 15.2 h. The tmax for valsartan ([2]; 50 mg daily for 14 days) was 1.6 h, the AUC0-24 for valsartan ([2]; 200 mg daily for 14 days) was 21079 ng·h/mL and the Cmax for valsartan ([2]; 200 mg daily for 14 days) was 3990 ng/mL. The t1/2 for valsartan ([2]; 200 mg daily for 14 days) was 22.1 h, the tmax for valsartan ([2]; 200 mg daily for 14 days) was 1.8 h and the AUC0-24 for valsartan ([2]; 600 mg daily for 14 days) was 58876 ng·h/mL. It also gave a Cmax for valsartan ([2]; 600 mg daily for 14 days) of 8563 ng/mL, a t1/2 for valsartan ([2]; 600 mg daily for 14 days) of 22.6 h and a tmax for valsartan ([2]; 600 mg daily for 14 days) of 2.2 h. The AUC0-24 for valsartan ([2]; 900 mg daily for 14 days) was 54920 ng·h/mL, the Cmax for valsartan ([2]; 900 mg daily for 14 days) was 8960 ng/mL and the t1/2 for valsartan ([2]; 900 mg daily for 14 days) was 15.0 h. For the same compound, the tmax for valsartan ([2]; 900 mg daily for 14 days) was 4.9 h, the “accumulation of all analytes” value ([2]; 50-900 mg LCZ696 once daily for 14 days) was “Minimal accumulation” and the AUC0-24 for valsartan ([2]; single dose 200 mg) was 16970 ng·h/mL. It also gave a Cmax for valsartan ([2]; single dose 200 mg) of 3309 ng/mL, a t1/2 for valsartan ([2]; single dose 200 mg) of 11.7 h and a tmax for valsartan ([2]; single dose 200 mg) of 1.7 h. For the same compound, the AUC0-24 for valsartan ([2]; single dose 600 mg) was 40645 ng·h/mL, the Cmax for valsartan ([2]; single dose 600 mg) was 7269 ng/mL and the t1/2 for valsartan ([2]; single dose 600 mg) was 16.6 h. The tmax for valsartan ([2]; single dose 600 mg) was 1.9 h, the AUC0-24 for valsartan ([2]; single dose 900 mg) was 53568 ng·h/mL and the Cmax for valsartan ([2]; single dose 900 mg) was 8374 ng/mL. It also gave a t1/2 for valsartan ([2]; single dose 900 mg) of 14.9 h, a tmax for valsartan ([2]; single dose 900 mg) of 2.2 h and an AUC0-24 for valsartan ([2]; single dose 1200 mg) of 60118 ng·h/mL. It also gave a Cmax for valsartan ([2]; single dose 1200 mg) of 7448 ng/mL, a t1/2 for valsartan ([2]; single dose 1200 mg) of 8.9 h and a tmax for valsartan ([2]; single dose 1200 mg) of 2.2 h. The “dose linearity of valsartan exposures” value ([3]; 5, 20, 80 mg LCZ696 single dose) was “dose linear”, the “AUC0-24, dose-normalized, geometric mean, valsartan” value (“AUC0-24, dose-normalized” below) [3, 4] was 364 ng * h/ml/mg-equivalent and the “AUC0-24 ratio LCZ696/Diovan” value [3, 4] was 1.81. For the same compound, the “AUC0-inf ratio LCZ696/Diovan” value [3, 4] was 1.81, the “AUC0-inf, dose-normalized, geometric mean, valsartan” value (from here on “AUC0-inf, dose-normalized”) [3, 4] was 372 ng * h/ml/mg-equivalent and the “Cmax ratio LCZ696/Diovan” value [3, 4] was 2.09. The “Cmax, dose-normalized, geometric mean, valsartan” value (“Cmax, dose-normalized” below) [3, 4] was 56 ng/ml/mg-equivalent, the “AUC0-24, dose-normalized” value [3, 5] was 280 ng * h/ml/mg-equivalent and the “AUC0-24 ratio LCZ696/Diovan” value [3, 5] was 1.38. The “AUC0-inf ratio LCZ696/Diovan” value [3, 5] was 1.38, the “AUC0-inf, dose-normalized” value [3, 5] was 284 ng * h/ml/mg-equivalent and the “Cmax ratio LCZ696/Diovan” value [3, 5] was 1.69. The “Cmax, dose-normalized” value [3, 5] was 44 ng/ml/mg-equivalent, the “AUC0-24, dose-normalized” value [3, 6] was 244 ng * h/ml/mg-equivalent and the “AUC0-24 ratio LCZ696/Diovan” value [3, 6] was 1.67. For the same compound, the “AUC0-inf ratio LCZ696/Diovan” value [3, 6] was 1.64, the “AUC0-inf, dose-normalized” value [3, 6] was 245 ng * h/ml/mg-equivalent and the “Cmax ratio LCZ696/Diovan” value [3, 6] was 2.1. The “Cmax, dose-normalized” value [3, 6] was 43 ng/ml/mg-equivalent, the “AUC0-24, dose-normalized” value [3, 7] was 292 ng * h/ml/mg-equivalent and the “AUC0-24 ratio LCZ696/Diovan” value [3, 7] was 1.61. The “AUC0-inf ratio LCZ696/Diovan” value [3, 7] was 1.6, the “AUC0-inf, dose-normalized” value [3, 7] was 296 ng * h/ml/mg-equivalent and the “Cmax ratio LCZ696/Diovan” value [3, 7] was 1.95. The “Cmax, dose-normalized” value [3, 7] was 47 ng/ml/mg-equivalent, the “tmax of valsartan free acid” value ([3]; oral administration) was 1.8 ± 0.3 h and the “enhanced oral bioavailability of valsartan free acid versus Diovan formulation” value ([3]; oral, analyte valsartan free acid, listed as therapeutic agent) was 1.6 fold. The “tmax for valsartan (mean)” value ([3]; single dose, range of cohort means) was 1.3 to 1.8 h and the “ratio of geometric means for AUC, LCZ696/Diovan” value ([3]; valsartan, dose-equivalent normalized, pooled cohorts) was 161%.
